In general, MIC refers to the least concentration at which growth counts as inhibited. A low value points to a more susceptible organism.

Among the data in patent US20070185132A1, “Cyclopropyl group substituted oxazolidinone antibiotics and derivatives thereo” (priority 2003, published 2007) are MIC values, retold here.

SMILES strings stand for the structures. ≈ marks a conversion by molar mass, not a printed value.

Holding throughout (assay type): cell-based
The subject of test [1] is Streptococcus pneumoniae IID553. Briefly: MIC, agar dilution method, S. pneumoniae IID553. To be noted: Mueller-Hinton agar with 5% defibrinated horse blood, 35° C., 5% CO2, 24 hours. The method, then: (§1) The following in vitro results were obtained based on an agar dilution method except for C. pneumoniae. The activity is presented as the minimum inhibitory concentration (MIC).
(§2) Streptococci and enterococci were tested on Mueller-Hinton agar supplemented with 5% defibrinated horse blood, using an approximate inoculum of 1×10^4 cfu/spot an incubation temperature of 35° C. in an atmosphere of 5% CO2 for 24 hours. The MIC was defined as the lowest concentration at which no visible bacterial growth was observed.
On the technique in general: In agar dilution, organisms are placed on agar that contains the substance at set levels.

For test [2], the system named is Streptococcus pyogenes IID692. Briefly: MIC, agar dilution method, S. pyogenes IID692. As to conditions: Mueller-Hinton agar with 5% defibrinated horse blood, 35° C., 5% CO2, 24 hours. The method, then: as §1, §2
In test [3] the test system is Staphylococcus aureus Smith. Briefly: MIC, agar dilution method, S. aureus Smith. As to conditions: Mueller-Hinton agar, 35° C., 24 hours. The procedure: as §1
(§3) S. aureus and M. catarrhalis were tested on Mueller-Hinton agar, using an approximate inoculum of 1×10^4 cfu/spot an incubation temperature of 35° C. for 24 hours. The MIC was defined as the lowest concentration at which no visible bacterial growth was observed.

The test system of test [4] is Staphylococcus aureus MR (methicillin resistant). Kind of test: MIC, agar dilution method, S. aureus MR. To be noted: Mueller-Hinton agar, 35° C., 24 hours. The method, then: as §1, §3
In test [5] the test system is Moraxella catarrhalis ATCC25238. Briefly: MIC, agar dilution method, M. catarrhalis ATCC25238. As to conditions: Mueller-Hinton agar, 35° C., 24 hours. The method, then:
as §1, §3

The test system of test [6] is Staphylococcus aureus CR (chloramphenicol resistant). Briefly: MIC, agar dilution method, S. aureus CR. To be noted: Mueller-Hinton agar, 35° C., 24 hours. The procedure:
as §1, §3

In test [7] the test system is Streptococcus pneumoniae PRQR (penicillin resistant, quinolone resistant). Briefly: MIC, agar dilution method, S. pneumoniae PRQR. To be noted: Mueller-Hinton agar with 5% defibrinated horse blood, 35° C., 5% CO2, 24 hours. The method, then:
as §1, §2

In test [8] the test system is Enterococcus faecium VRQR (vancomycin resistant, quinolone resistant). Briefly: MIC, agar dilution method, E. faecium VRQR. As to conditions: Mueller-Hinton agar with 5% defibrinated horse blood, 35° C., 5% CO2, 24 hours. The method, then:
as §1, §2

For the molecule `N#CC1(c2ccc(-c3ccc(N4C[C@H](Cn5ccnn5)OC4=O)cc3)cn2)CC1` [Example 18, 1-[5(R)-3-[4-[2-(1-Cyanocyclopropan-1-yl)pyridin-5-yl]phenyl]-2-oxooxazolidin-5-ylmethyl]-1,2,3-triazole], the MIC was 0.125 µg/mL (≈ 0.323 µM) in test [1]; 0.06 µg/mL (≈ 0.155 µM) in test [2]; 0.06 µg/mL (≈ 0.155 µM) in test [3]; 0.06 µg/mL (≈ 0.155 µM) in test [4]; 0.5 µg/mL (≈ 1.29 µM) in test [5]; 1 µg/mL (≈ 2.59 µM) in test [6]. In addition, the MIC in test [7] and in test [8] was 0.125 µg/mL (≈ 0.323 µM) each time.
As to `CC(=O)NC[C@H]1CN(c2ccc(-c3ccc(C4(N)CC4)nc3)cc2)C(=O)O1` [Example 5, N-[5(S)-3-[4-[2-(1-Aminocyclopropan-1-yl)pyridin-5-yl]phenyl]-2-oxooxazolidin-5-ylmethyl]acetamide], the MIC in test [1] came out at 0.5 µg/mL (≈ 1.36 µM); in test [2], 0.25 µg/mL (≈ 0.682 µM); in test [3], 0.25 µg/mL (≈ 0.682 µM); in test [4], 0.5 µg/mL (≈ 1.36 µM); in test [5], 2 µg/mL (≈ 5.46 µM); in test [6], 2 µg/mL (≈ 5.46 µM). For the same molecule, the MIC worked out at 0.25 µg/mL (≈ 0.682 µM) in test [7] and 0.5 µg/mL (≈ 1.36 µM) in test [8].
In the case of `N[C@@H]1[C@H]2CN(c3ccc(-c4ccc(N5C[C@H](Cn6ccnn6)OC5=O)cc4F)cn3)C[C@@H]12` [Example 32, 1-[5(R)-3-[4-[2-[(1α,5α,6α)-6-amino-3-azabicyclo[3.1.0]hexan-3-yl]pyridin-5-yl]-3-fluorophenyl]-2-oxooxazolidin-5-ylmethyl]-1,2,3-triazole], the minimal inhibitory concentration (MIC) was 0.25 µg/mL (≈ 0.574 µM) in test [1]; 0.125 µg/mL (≈ 0.287 µM) in test [2]; 0.125 µg/mL (≈ 0.287 µM) in test [3]; 0.125 µg/mL (≈ 0.287 µM) in test [4]; 2 µg/mL (≈ 4.59 µM) in test [5]; 1 µg/mL (≈ 2.3 µM) in test [6]. In addition, the MIC amounted to 0.125 µg/mL (≈ 0.287 µM) in test [7] and 0.5 µg/mL (≈ 1.15 µM) in test [8].
For the molecule `CC(=O)NC[C@H]1CN(c2ccc(-c3ccc(C4(C#N)CC4)nc3)c(F)c2)C(=O)O1` [Example 3, N-[5(S)-3-[4-[2-(1-Cyanocyclopropan-1-yl)pyridin-5-yl]-3-fluorophenyl]-2-oxooxazolidin-5-ylmethyl]acetamide], the MIC worked out at 0.125 µg/mL (≈ 0.317 µM) in test [1]; 0.125 µg/mL (≈ 0.317 µM) in test [2]; 0.06 µg/mL (≈ 0.152 µM) in test [3]; 0.125 µg/mL (≈ 0.317 µM) in test [4]; 0.5 µg/mL (≈ 1.27 µM) in test [5]; 0.5 µg/mL (≈ 1.27 µM) in test [6]. Besides, the MIC in test [7] and in test [8] was 0.125 µg/mL (≈ 0.317 µM) in each case.
Turning to `CC(=O)NC[C@H]1CN(c2ccc(N3CCOCC3)c(F)c2)C(=O)O1` [Linezolid, reference compound], the MIC in test [1] stood at 2 µg/mL (≈ 5.93 µM); in test [2], 1 µg/mL (≈ 2.96 µM); in test [3], 1 µg/mL (≈ 2.96 µM); in test [4] it was 1 µg/mL (≈ 2.96 µM); in test [5] it was 4 µg/mL (≈ 11.9 µM); in test [6], 16 µg/mL (≈ 47.4 µM). For the same molecule, the MIC in test [7] turned out to be 1 µg/mL (≈ 2.96 µM); in test [8], 2 µg/mL (≈ 5.93 µM).
